One data set has as its system NCI-H1373 cells. The data set is described as follows: NCI-H1373 cell proliferation inhibition assay. It is filed as cell-based. As to conditions: Homo sapiens, NCI-H1373, 144 h; 6 days of incubation, Cell Titer Blue. The protocol: Human lung adenocarcinoma cells NC-H1373 (ATCC, CRL-5866M) were cultured in a cell incubator at 37° C. and 5% CO2 using RPMI-1640 medium containing 10% FBS and 1% […]. The cells in the logarithmic growth phase were counted by digestion and inoculated in a 96-well plate at 1500 NCI-H1373 per well, and the plate was placed in an incubator overnight. The next day, test compounds were formulated in 10 mM stock solution by using DMSO and 3-fold diluted in gradient from a maximum concentration of 10 μM by using RPMI-1640 medium, and 10 gradient concentrations were set with 2 parallel wells per concentration gradient. After 6 days of incubation, 100 μL of Cell Titer Blue working solution was added to each well and the chemiluminescence value was read in a microplate reader. IC50 was calculated using GraphPad Prism7.0 software.
On the technique in general: Alamar Blue is a resazurin reagent that responds to reducing activity.

A further data set has as its system MDR1. The data set is described as follows: MDCKII-MDR1 cell permeability assay. It is filed as in vitro ADME. To be noted: dog, MDCK-MDR1, 1 μM test compound. How it is done:
50 μL of MDCKII-MDR1 cell suspension with a density of 1.56×10^6 cells/mL was seeded into a Transwell well of a 96-well plate, and the plate was cultured in a cell incubator at 37° C. in 5% CO2. […] The medium in Transwell was discarded, and HBSS equilibration solution was added and incubated at 37° C. for 30 min. Subsequently, an apical to basolateral drug transport rate assay was performed by adding 1 μM test compound solution to the Transwell AB side and a blank equilibration solution to the BL side. When the basolateral to apical drug transport rate assay was performed, the operation steps were reversed. Subsequently, the cells were placed in an incubator for 2 h. After the incubation, samples were taken from the basolateral and apical respectively, and after centrifugation, the supernatant was subjected to LC-MS/MS analysis, and the apparent permeability coefficient (Papp) was calculated, the results of which are shown in Table 5.

Data set [1] can be described thus: Metabolic stability in liver microsome. It is filed as in vitro ADME. To be noted: liver microsomes; 0.5 mg/mL CD1 mouse liver microsome, 0.5 μM test compound, NADPH and UDPGA, 37° C. The protocol: 0.5 mg/mL CD1 mouse liver microsome solution, 0.5 μM test compound, 1.0 mM reduced nicotinamide adenine dinucleotide phosphate (NADPH), and 1.0 mM uridine diphosphate-A-glucuronic acid (UDPGA) were added to the incubation plate and mixed, and the plate was incubated at 37° C. for 0, 30, 60, 120 min separately. The positive control group was set as 0.5 μM CYP3A4 probe substrate-testosterone and 0.5 μM UGT probe substrate-7-hydroxycoumarin incubated with microsomes for 0 and 120 min in the presence of NADPH and UDPGA; the negative control group (NC) was set as the test substance incubated with microsomes for 0 and 120 min without any coenzyme. After the reaction was terminated by adding pre-cooled methanol at each termination time, the reaction mixture was centrifuged at 4000 rpm for 10 min, the supernatant was taken and the remaining amount of the parent drug in the sample was measured by LC-MS/MS, the results of which are shown in Table 4.
A general note: Liver microsomes are vesicles of endoplasmic reticulum, rich in cytochrome P450 enzymes.

In the next data set the target is PARP7 (Homo sapiens (Human), UniProt Q7Z3E1). As to the kind of experiment: Enzymatic biochemical assay of PARP (chemiluminescence detection kit), PARP7. As to conditions: read-out: Inhibitory activity against PAPR7 (IC50). How it is done:
This assay adopted PARP1, TNKS1, TNKS2, PARP7 and PARP14 chemiluminescence detection kits (BPS, Cat No. 80551/80552/80573/80578/79729/80568) for enzymatic biochemical assay of PARP. The specific scheme was as follows: the 1× histone mixture was added to a 96-well plate at 50 μL per well, and the plate was incubated overnight at 4° C. The next day, after the plate was washed with PBST, 200 μL of blocking buffer per well was added, and the plate was incubated for 90 min. After the plate was washed with PBST again, 5 μL of inhibitor, 20 μL of 1×PARP buffer and 25 μL of […] were added to each well, and the plate was incubated at room temperature for 30 min. After the plate was washed with PBST, 100 μL of Elisa ECL substrate A and B mixture was added to each well, chemiluminescence value was immediately read using a plate reader, and IC50 values were calculated.

Chain of PARP7 (Q7Z3E1 whole entry): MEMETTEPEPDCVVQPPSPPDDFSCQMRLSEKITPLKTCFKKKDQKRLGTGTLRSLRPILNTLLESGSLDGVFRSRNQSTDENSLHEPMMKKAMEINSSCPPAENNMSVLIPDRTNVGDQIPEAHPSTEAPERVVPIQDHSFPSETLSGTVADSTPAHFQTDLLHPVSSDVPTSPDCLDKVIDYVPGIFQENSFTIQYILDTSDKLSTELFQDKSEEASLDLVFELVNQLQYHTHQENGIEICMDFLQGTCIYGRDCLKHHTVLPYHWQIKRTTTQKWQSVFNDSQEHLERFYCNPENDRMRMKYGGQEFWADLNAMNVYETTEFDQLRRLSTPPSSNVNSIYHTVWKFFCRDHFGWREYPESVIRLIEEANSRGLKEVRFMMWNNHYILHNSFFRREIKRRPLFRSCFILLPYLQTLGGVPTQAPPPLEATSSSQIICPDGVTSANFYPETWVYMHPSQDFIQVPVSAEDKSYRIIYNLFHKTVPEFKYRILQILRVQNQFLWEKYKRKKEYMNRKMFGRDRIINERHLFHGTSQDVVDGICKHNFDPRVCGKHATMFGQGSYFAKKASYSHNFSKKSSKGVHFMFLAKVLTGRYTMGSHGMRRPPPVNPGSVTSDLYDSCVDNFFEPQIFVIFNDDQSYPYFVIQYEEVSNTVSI

The term IC50 denotes the concentration needed to halve the response being measured. `[2H]c1c(COC[C@H](C)Nc2cn[nH]c(=O)c2C(F)(F)F)nn2c1CN(c1ncc(C(F)(F)F)cn1)CC2` [Compound 25, (S)-4-(trifluoromethyl)-5-((1-((5-(5-(trifluoromethyl)pyrimidin-2-yl)-4,5,6,7-tetrahydropyrazolo[1,5-a]pyrazin-2-yl-d)methoxy)propan-2-yl)amino)pyridazin-3(2H)-one] yielded an IC50 in the data set on NCI-H1373 cells of under 50 nM.
Same read-out and setting: for `O=c1[nH]ncc(N2CCC[C@H]2COCc2nc3n(n2)CCN(c2ncc(C(F)(F)F)cn2)C3)c1C(F)(F)F` [Compound 28, (S)-4-(trifluoromethyl)-5-(2-(((7-(5-(trifluoromethyl)pyrimidin-2-yl)-5,6,7,8-tetrahydro-[1,2,4]triazolo[1,5-a]pyrazin-2-yl)methoxy)methyl)pyrrolidin-1-yl)pyridazin-3(2H)-one] the value was 50 to 100 nM.
For orientation: efflux ratio means a quotient of directional permeabilities that is used to spot active efflux. Usually Papp A→B stands for how fast a substance crosses the layer from the apical side. High values mean ready permeation, low ones poor permeation. Usually Papp B→A stands for how fast a substance crosses the layer from the basolateral side. In the data set with NCI-H1373 cells, `CSc1cnc(N2CCn3nc(COC[C@H](C)Nc4cn[nH]c(=O)c4C(F)(F)F)cc3C2)nc1` [Compound 39, (S)-5-((1-((5-(5-(methylthio)pyrimidin-2-yl)-4,5,6,7-tetrahydropyrazolo[1,5-a]pyrazin-2-yl)methoxy)propan-2-yl)amino)-4-(trifluoromethyl)pyridazin-3(2H)-one] displayed an IC50 of under 50 nM. The efflux ratio at 2 h, 1 μM in the data set on MDR1 came out at 4.09. For the same molecule, the Papp A→B at 2 h, 1 μM with MDR1 (apical to basolateral) stood at 8.82 ×10⁻⁶ cm/s. For the same molecule, the Papp B→A at 2 h, 1 μM in the data set on MDR1 (basolateral to apical) worked out at 35.5 ×10⁻⁶ cm/s.
For orientation: half-life means how long it takes for the measured level to halve. Low values mean rapid decline, high ones slow decline. Turning to `C[C@@H](COCc1nc2n(n1)CCN(c1ncc(C(F)(F)F)cn1)C2)Nc1cn[nH]c(=O)c1C(F)(F)F` [Compound 9, (S)-4-(trifluoromethyl)-5-((1-((7-(5-(trifluoromethyl)pyrimidin-2-yl)-5,6,7,8-tetrahydro-[1,2,4]triazolo[1,5-a]pyrazin-2-yl)methoxy)propan-2-yl)amino)pyridazin-3(2H)-one], the figures for the IC50 in the data set with NCI-H1373 cells and on PARP7 were under 50 nM and 10 to 50 nM, respectively. In addition, in data set [1], the half-life at 0.5 μM was over 0.5 h.
For `[2H]C([2H])(OC[C@H](C)Nc1cn[nH]c(=O)c1C(F)(F)F)c1cc2n(n1)CCN(c1cnc(C(F)(F)F)cn1)C2([2H])[2H]` [Compound 21, (S)-4-(trifluoromethyl)-5-((1-((5-(5-(trifluoromethyl)pyrazin-2-yl)-4,5,6,7-tetrahydropyrazolo[1,5-a]pyrazin-2-yl-4,4-d2)methoxy-d2)propan-2-yl)amino)pyridazin-3(2H)-one], the IC50 in the data set with NCI-H1373 cells is under 50 nM; on PARP7 it was under 10 nM.
Take `[2H]C([2H])(OC[C@H](C)Nc1cn[nH]c(=O)c1C(F)(F)F)c1cc2n(n1)CCN(c1ccc(C#N)cn1)C2([2H])[2H]` [Compound 23, (S)-6-(2-((2-((6-oxo-5-(trifluoromethyl)-1,6-dihydropyridazin-4-yl)amino)propoxy)methyl-d2)-6,7-dihydropyrazolo[1,5-a]pyrazin-5(4H)-yl-4,4-d2)nicotinonitrile]: in the data set with NCI-H1373 cells, the IC50 lay within 50 to 100 nM.
Consider `C[C@@H](CO[C@H](C)c1cc2n(n1)CCN(c1ncc(C(F)(F)F)cn1)C2)Nc1cn[nH]c(=O)c1C(F)(F)F` [Compound 3-II, 4-(Trifluoromethyl)-5-(((S)-1-((R)-1-(5-(5-(trifluoromethyl)pyrimidin-2-yl)-4,5,6,7-tetrahydropyrazolo[1,5-a]pyrazin-2-yl)ethoxy)propan-2-yl)amino)pyridazin-3(2H)-one], for which the IC50 at PARP7 was in the range of 50 to 100 nM.
Regarding `[2H]C([2H])(OC[C@H](C)Nc1cn[nH]c(=O)c1C(F)(F)F)c1cc2n(n1)CCN(c1ncc(C(F)(F)F)cn1)C2([2H])[2H]` [Compound 2, (S)-4-(trifluoromethyl)-5-((1-((5-(5-(trifluoromethyl)pyrimidin-2-yl)-4,5,6,7-tetrahydropyrazolo[1,5-a]pyrazin-2-yl-4,4-d2)methoxy-d2)propan-2-yl)amino)pyridazin-3(2H)-one], the IC50 in the data set with NCI-H1373 cells is under 50 nM.
In the data set with NCI-H1373 cells, `C[C@@H](COCc1nc2n(n1)CCN(c1ccc(C(F)(F)F)cn1)C2)Nc1cn[nH]c(=O)c1C(F)(F)F` [Compound 26, (S)-4-(trifluoromethyl)-5-((1-((7-(5-(trifluoromethyl)pyridin-2-yl)-5,6,7,8-tetrahydro[1,2,4]triazolo[1,5-a]pyrazin-2-yl)methoxy)propan-2-yl)amino)pyridazin-3(2H)one] had an IC50 of under 50 nM. In addition, the half-life at 0.5 μM in data set [1] is over 1.67 h.
`C[C@@H](COCc1nn2c(c1Cl)CN(c1cnc(C(F)(F)F)cn1)CC2)Nc1cn[nH]c(=O)c1C(F)(F)F` [Compound 14, (S)-5-((1-((3-chloro-5-(5-(trifluoromethyl)pyrazin-2-yl)-4,5,6,7-tetrahydropyrazolo[1,5-a]pyrazin-2-yl)methoxy)propan-2-yl)amino)-4-(trifluoromethyl)pyridazin-3(2H)-one] came in with an IC50 with NCI-H1373 cells of 50 to 100 nM.
For the molecule `C[C@@H](COCc1cc2n(n1)CCN(c1ccc(C(F)(F)F)cn1)C2=O)Nc1cn[nH]c(=O)c1C(F)(F)F` [Compound 11, (S)-2-((2-((6-oxo-5-(trifluoromethyl)-1,6-dihydropyridazin-4-yl)amino)propoxy)methyl)-5-(5-(trifluoromethyl)pyridin-2-yl)-6,7-dihydropyrazolo[1,5-a]pyrazin-4(5H)-one], in the data set on NCI-H1373 cells, the half-inhibitory concentration (IC50) lay within 50 to 100 nM. This molecule gave a half-life at 0.5 μM in data set [1] of over 1.67 h.
On to `CC[C@@H](COCc1nc2n(n1)CCN(c1ncc(C(F)(F)F)cn1)C2)Nc1cn[nH]c(=O)c1C(F)(F)F` [Compound 37, (S)-4-(trifluoromethyl)-5-((1-((7-(5-(trifluoromethyl)pyrimidin-2-yl)-5,6,7,8-tetrahydro-[1,2,4]triazolo[1,5-a]pyrazin-2-yl)methoxy)butan-2-yl)amino)pyridazin-3(2H)-one], for which, in data set [1], the half-life at 0.5 μM is over 1.67 h.
As for `C[C@@H](COCc1cc2n(n1)CCN(c1ncc(C(F)(F)F)s1)C2)Nc1cn[nH]c(=O)c1C(F)(F)F` [Compound 30], in the data set with NCI-H1373 cells, the IC50 fell in the range of 50 to 100 nM.
With `C[C@H](OC[C@H](C)Nc1cn[nH]c(=O)c1C(F)(F)F)c1cc2n(n1)CCN(c1ncc(C(F)(F)F)cn1)C2` [Compound 3-I, 4-(Trifluoromethyl)-5-(((S)-1-((S)-1-(5-(5-(trifluoromethyl)pyrimidin-2-yl)-4,5,6,7-tetrahydropyrazolo[1,5-a]pyrazin-2-yl)ethoxy)propan-2-yl)amino)pyridazin-3(2H)-one], the IC50 is under 50 nM in the data set with NCI-H1373 cells and under 10 nM on PARP7.
With `C[C@@H](COCc1cc2n(n1)CCN(c1cnc(C(F)(F)F)cn1)C2)Nc1cn[nH]c(=O)c1C(F)(F)F` [Compound 5, (S)-4-(trifluoromethyl)-5-((1-((5-(5-(trifluoromethyl)pyrazin-2-yl)-4,5,6,7-tetrahydropyrazolo[1,5-a]pyrazin-2-yl)methoxy)propan-2-yl)amino)pyridazin-3(2H)-one], the 50% inhibitory concentration (IC50) in the data set on NCI-H1373 cells was under 50 nM; on PARP7, under 10 nM.
In turn, `C[C@@H](COCc1nn2c(c1C(F)(F)F)CN(c1ncc(C(F)(F)F)cn1)CC2)Nc1cn[nH]c(=O)c1C(F)(F)F` [Compound 19, (S)-4-(trifluoromethyl)-5-((1-((3-(trifluoromethyl)-5-(5-(trifluoromethyl)pyrimidin-2-yl)-4,5,6,7-tetrahydropyrazolo[1,5-a]pyrazin-2-yl)methoxy)propan-2-yl)amino)pyridazin-3(2H)-one] gave a half-maximal inhibitory concentration (IC50) with NCI-H1373 cells of under 50 nM.

The values are drawn from patent US20240158406A1, “PIPERAZINE DERIVATIVE AND USE THEREOF IN MEDICINE” (CHENGDU BAIYU PHARMACEUTICAL CO., LTD., priority 2021, published 2024).
